Data on six compounds can be found in patent publication US11642391B2, “Compositions containing a pharmacophore with selectivity to diseased tissue and methods of making same” (Vascular BioSciences, priority 2014, dated 2023).

For series [1], the system named is LPS-induced sepsis. As to the kind of experiment: Survival in LPS mouse model of sepsis. The series is classed as in vivo, mice. On the procedure:
Fifty-percent of all mice with LPS-induced sepsis that are left untreated are dead within 48 hours. When these LPS mice are treated with clinically relevant doses of the common and experimental sepsis drugs hydrocortisone, antithrombin III or sivelestat, survival ranged from 40-56%, similar to current clinical outcomes. In contrast, when LPS mice were co-administered CAR at the same time as hydrocortisone, antithrombin III or sivelestat, experimental sepsis survival improved to 83-89%.
Injection of the bacterial protein, lipopolysaccharide (LPS), was used to induce sepsis in mice. Doses were given at 3, 6, 9, and 12 hours to match the clinical use of sivelestat. Survival was measured up to 48 hours after LPS injection. At 48 hours, the survival rate of CAR pharmacophore+sivelestat treated animals was 89% compared to 50% in both control and sivelestat only groups, representing a 78% increase in survival of animals treated with CAR pharmacophore (FIG. 12).
Sepsis was initiated and survival measured with doses given at 3 and 24 hours to match the clinical use of ATIII. […]
CAR pharmacophore dramatically improves survival in septic mice treated with hydrocortisone steroid. Sepsis was initiated and survival measured with doses given at 3 and 24 hours to match the clinical use of hydrocortisone. […]

In series [2] the test system is sepsis. The note with it: cited from earlier work.
Series [3] deals with monocrotaline-induced PAH. Put plainly: Monocrotaline-induced (MCT) PAH rat model, co-administration with imatinib. Type of series: in vivo, Sprague-Dawley rats. The note with it: prolonged intravenous administration of imatinib alone. As for the experimental part: CAR pharmacophore co-administration with imatinib in a rat model of monocrotaline-induced (MCT) PAH was used to observe the therapeutic utility of CAR for targeting PAH. CAR pharmacophore peptide was intravenously co-administered with 10 mg/kg or 50 mg/kg imatinib for 14 days starting 4 weeks post MCT induction.
PAH was induced in male Sprague-Dawley rats (300-330 g, 10 weeks old, Harlan) with a single intraperitoneal dose of monocrotaline (60 mg/kg). Treatment was initiated four weeks after PAH induction with either imatinib (50 mg/kg or 10 mg/kg) or imatinib (50 mg/kg or 10 mg/kg)+CAR pharmacophore combination (3 mg/kg) for 2 weeks with daily i.v. (FIGS. 22 and 23) or daily sublingual administration.

The test system of series [4] is MDA-MB-231 cells. Put plainly: Triple negative breast cancer model in athymic nude mice. The series is classed as in vivo. To be noted: after 32 days; 3 mg/kg i.v. every other day, 15 doses.
Procedure: In female athymic nude mice (CRL: NU(NCr)—Foxn1nu, 11 weeks old, Charles River), triple negative breast cancer tumors were initiated via subcutaneous injection of 5×10^6 MDA-MB-231 cells into the right flank. Tumor growth was monitored until the average tumor size approached 100-150 mm3. […] Animals were dosed intravenously every other day for a total of 15 doses. Tumor volume was measured using calipers twice per week and animals weighed daily on days 1-5 and then on a twice weekly schedule.
In series [5] the test system is lung, liver and kidney endothelium of septic animals. Put plainly: Scanning electron micrograph of lung, liver and kidney tissue in LPS sepsis. Type of series: in vivo, mice.
Series [6] deals with CHO cells. The note with it: prior experiments; linear truncated peptides; cited from earlier work.
In series [7] the test system is diseased kidney (anti-glomerular basement membrane antibody induced glomerular injury). As to the kind of experiment: CAR pharmacophore targeting in rat model of crescentic glomerular nephritis. The series is classed as in vivo. To be noted: i.v. 3.3 mg/kg B.W., 14 days after induction, kidneys harvested three hours after injection. As for the experimental part: A rat model of crescentic glomerular nephritis (anti-glomerular basement membrane antibody induced glomerular injury) was used to observe the utility of CAR pharmacophore targeting in chronic kidney disease. Glomerulonephritis was induced in rat kidneys by i.v. injection of anti-glomerular basement membrane antibodies. 14 days after induction, CAR pharmacophore peptide or control ([…] SEQ ID NO: 34) peptide was i.v. injected at 3.3 mg/kg B.W. Kidneys were harvested three hours after CAR pharmacophore or control injection and Masson's trichrome (collagen) staining and fibronectin immunostaining were used to determine development of kidney disease and fibrosis formation.

Where [8] appears, read: meta-analysis of 8 trials (Iwata et al., 2010).

`C[C@]12CCC(=O)C=C1CC[C@@H]1[C@@H]2[C@@H](O)C[C@@]2(C)[C@H]1CC[C@]2(O)C(=O)CO` [hydrocortisone] gave a survival rate in series [1] (48 hours, hydrocortisone only, doses at 3 and 24 hours) of 56%. The super infection entry in series [2] (low-dose hydrocortisone therapy, septic shock) is “more episodes of super infection”. Moreover, the “survival in patients with septic shock” value in series [2] (low-dose hydrocortisone therapy) is given as “did not improve survival”.

Regarding `Cc1ccc(NC(=O)c2ccc(CN3CCN(C)CC3)cc2)cc1Nc1nccc(-c2cccnc2)n1` [imatinib], in series [3], the effect on bodyweight entry is on record as “significant adverse effect on bodyweight”.

Turning to `CC(=O)O[C@H]1C(=O)[C@@]2(C)[C@H]([C@H](OC(=O)c3ccccc3)[C@]3(O)C[C@H](OC(=O)[C@H](O)[C@@H](NC(=O)c4ccccc4)c4ccccc4)C(C)=C1C3(C)C)[C@]1(OC(C)=O)CO[C@@H]1C[C@@H]2O` [paclitaxel], the “bodyweight gain relative to average starting bodyweight” value in series [4] turned out to be 5%.

For the compound `CC(C)(C)C(=O)Oc1ccc(S(=O)(=O)Nc2ccccc2C(=O)NCC(=O)O)cc1` [sivelestat], the survival rate in series [1] (48 hours after LPS injection, doses at 3, 6, 9, and 12 hours) amounted to 50%. In series [5], the “pulmonary arteriole endothelium degradation (SEM, lung)” value is “did not prevent degradation of the continuous pulmonary arteriole endothelium”; the “sieve plates (SEM, liver)” value was “not able to prevent defenestration of sieve plates”; the “tissue damage (SEM, kidney)” value is “did not prevent gross tissue damage”. In addition, in series [2] (setting [8]), the 180 day mortality result was “possibly increased”, the mechanical ventilation days result is recorded as “no difference” and the “mortality rate within 28-30 days after randomization” value was “no difference”.

On to CARSKNK [SEQ ID NO: 24], for which the “cell binding and tissue homing” value in series [6] is listed as “highly active”.

With CGGGGGGGC [control peptide], in series [7], the “accumulation in the diseased kidney” value is listed as “largely cleared from the kidney”.
